# Values of other authors, collected in patent US9029598B2 (Colgate-Palmolive Company, priority 2009, dated 2015).
# Details: room temperature, natural partial pressure (3.5×10^−4 atmosphere)
smiles,measurement,value
O=C=O [Carbon dioxide],maximum concentration of carbon dioxide in water,12 µM
